How the values were obtained:
Type in all cases: in vivo
Alopecurus myosuroides [1] = experiment: Pre-emergence herbicidal effect; settings: scored visually after 3 weeks
How it was run: (§1)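 Herbicidal activity (%) is a visual rating made 3 weeks after treatment by comparison with untreated controls, where 0% equals control plants and 100% means the plants died. Application went onto the soil covering sown seeds before emergence.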

Amaranthus retroflexus [2] = experiment: Pre-emergence herbicidal effect; settings: scored visually after 3 weeks
How it was run: as §1

Avena fatua = experiment: Pre-emergence herbicidal effect; settings: Dosage 320 g/ha, scored visually after 3 weeks
How it was run: as §1

Echinochloa crus-galli [3] = experiment: Pre-emergence herbicidal effect; settings: scored visually after 3 weeks
How it was run: as §1

Ipomoea purpurea [4] = experiment: Pre-emergence herbicidal effect; settings: Dosage 320 g/ha, scored visually after 3 weeks
How it was run: as §1

Lolium multiflorum [5] = experiment: Pre-emergence herbicidal effect; settings: Dosage 320 g/ha, scored visually after 3 weeks
How it was run: as §1

Matricaria inodora [6] = experiment: Pre-emergence herbicidal effect; settings: scored visually after 3 weeks
How it was run: as §1

Polygonum convolvulus [7] = experiment: Pre-emergence herbicidal effect; settings: scored visually after 3 weeks
How it was run: as §1

Setaria viridis [8] = experiment: Pre-emergence herbicidal effect; settings: scored visually after 3 weeks
How it was run: as §1

Stellaria media [9] = experiment: Pre-emergence herbicidal effect; settings: scored visually after 3 weeks
How it was run: as §1

Veronica persica [10] = experiment: Pre-emergence herbicidal effect; settings: scored visually after 3 weeks
How it was run: as §1

Viola tricolor [11] = experiment: Pre-emergence herbicidal effect; settings: scored visually after 3 weeks
How it was run: as §1

Amaranthus retroflexus [12] = experiment: Post-emergence herbicidal effect; settings: assessed visually after about 3 weeks vs untreated controls
How it was run: (§2)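 Ratings are visual percentages taken around 3 weeks after treatment, compared with untreated plants. Treatment consisted of an aqueous spray of WP or EC formulations, with 0.2% wetting agent, onto one-leaf-stage weeds raised from seed in sandy loam.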

Echinochloa crus-galli [13] = experiment: Post-emergence herbicidal effect; settings: assessed visually after about 3 weeks vs untreated controls
How it was run: as §2

Ipomoea purpurea [14] = experiment: Post-emergence herbicidal effect; settings: assessed visually after about 3 weeks vs untreated controls
How it was run: as §2

Lolium multiflorum [15] = experiment: Post-emergence herbicidal effect; settings: 320 g/ha, assessed visually after about 3 weeks vs untreated controls
How it was run: as §2

Matricaria inodora [16] = experiment: Post-emergence herbicidal effect; settings: assessed visually after about 3 weeks vs untreated controls
How it was run: as §2

Polygonum convolvulus [17] = experiment: Post-emergence herbicidal effect; settings: 320 g/ha, assessed visually after about 3 weeks vs untreated controls
How it was run: as §2

Stellaria media [18] = experiment: Post-emergence herbicidal effect; settings: assessed visually after about 3 weeks vs untreated controls
How it was run: as §2

Veronica persica [19] = experiment: Post-emergence herbicidal effect; settings: assessed visually after about 3 weeks vs untreated controls
How it was run: as §2

Viola tricolor [20] = experiment: Post-emergence herbicidal effect; settings: assessed visually after about 3 weeks vs untreated controls
How it was run: as §2

Abutilon theophrasti [21] = experiment: Post-emergence herbicidal effect; settings: assessed visually after about 3 weeks vs untreated controls
How it was run: as §2

Setaria viridis [22] = experiment: Post-emergence herbicidal effect; settings: assessed visually after about 3 weeks vs untreated controls
How it was run: as §2

Abutilon theophrasti [23] = experiment: Pre-emergence herbicidal effect; settings: scored visually after 3 weeks
How it was run: as §1

Cyperus esculentus = experiment: Pre-emergence herbicidal effect; settings: Dosage 320 g/ha, scored visually after 3 weeks
How it was run: as §1

Alopecurus myosuroides [24] = experiment: Post-emergence herbicidal effect; settings: 320 g/ha, assessed visually after about 3 weeks vs untreated controls
How it was run: as §2

Row | SMILES | ALOMY pre-emergence efficacy (herbicidal activity) (Alopecurus myosuroides [1]; Dosage 320 g/ha) | AMARE pre-emergence efficacy (herbicidal activity) (Amaranthus retroflexus [2]; Dosage 80 g/ha) | AMARE pre-emergence efficacy (herbicidal activity) (Amaranthus retroflexus [2]; Dosage 320 g/ha) | ECHCG pre-emergence efficacy (herbicidal activity) (Echinochloa crus-galli [3]; Dosage 320 g/ha) | PHBPU pre-emergence efficacy (herbicidal activity) (Ipomoea purpurea [4]) | LOLMU pre-emergence efficacy (herbicidal activity) (Lolium multiflorum [5]) | MATIN pre-emergence efficacy (herbicidal activity) (Matricaria inodora [6]; Dosage 80 g/ha) | MATIN pre-emergence efficacy (herbicidal activity) (Matricaria inodora [6]; Dosage 320 g/ha) | POLCO pre-emergence efficacy (herbicidal activity) (Polygonum convolvulus [7]; Dosage 320 g/ha) | SETVI pre-emergence efficacy (herbicidal activity) (Setaria viridis [8]; Dosage 320 g/ha) | STEME pre-emergence efficacy (herbicidal activity) (Stellaria media [9]; Dosage 80 g/ha) | STEME pre-emergence efficacy (herbicidal activity) (Stellaria media [9]; Dosage 320 g/ha) | VERPE pre-emergence efficacy (herbicidal activity) (Veronica persica [10]; Dosage 80 g/ha) | VERPE pre-emergence efficacy (herbicidal activity) (Veronica persica [10]; Dosage 320 g/ha) | VIOTR pre-emergence efficacy (herbicidal activity) (Viola tricolor [11]; Dosage 80 g/ha) | VIOTR pre-emergence efficacy (herbicidal activity) (Viola tricolor [11]; Dosage 320 g/ha) | post-emergence efficacy AMARE (Amaranthus retroflexus [12]; 320 g/ha) | post-emergence efficacy VERPE (Veronica persica [19]; 320 g/ha) | post-emergence efficacy VIOTR (Viola tricolor [20]; 80 g/ha) | post-emergence efficacy VIOTR (Viola tricolor [20]; 320 g/ha) | further results
1 | CS(=O)(=O)c1cnc(NC2CCCc3sccc32)nc1N (racemic) [compound 23] | 80% | 100% | 100% | 100% | 100% | 100% | 100% | 100% | 100% | 100% | 100% | 100% | 100% | 100% | 100% | 100% | 80% | 90% | 80% | 100% | AVEFA pre-emergence efficacy (herbicidal activity) (Avena fatua): 90%; POLCO pre-emergence efficacy (herbicidal activity) (Polygonum convolvulus [7]; Dosage 80 g/ha): 100%; post-emergence efficacy AMARE (Amaranthus retroflexus [12]; 80 g/ha): 80%; post-emergence efficacy ECHCG (Echinochloa crus-galli [13]; 320 g/ha): 80%; post-emergence efficacy PHBPU (Ipomoea purpurea [14]; 80 g/ha): 80%; post-emergence efficacy PHBPU (Ipomoea purpurea [14]; 320 g/ha): 80%; post-emergence efficacy LOLMU (Lolium multiflorum [15]): 80%; post-emergence efficacy MATIN (Matricaria inodora [16]; 80 g/ha): 80%; post-emergence efficacy MATIN (Matricaria inodora [16]; 320 g/ha): 100%; post-emergence efficacy POLCO (Polygonum convolvulus [17]): 80%; post-emergence efficacy STEME (Stellaria media [18]; 320 g/ha): 90%; post-emergence efficacy VERPE (Veronica persica [19]; 80 g/ha): 90%
2 | C/C(=N/OCc1ccccc1)c1cnc(NC2CCCc3sc(C)cc32)nc1N (racemic) [compound 291] | 90% | – | 100% | 80% | 100% | 60% | 100% | 100% | 70% | 100% | 100% | 100% | 100% | 100% | 90% | 100% | 80% | 60% | 80% | 80% | ALOMY pre-emergence efficacy (herbicidal activity) (Alopecurus myosuroides [1]; Dosage 80 g/ha): 60%; SETVI pre-emergence efficacy (herbicidal activity) (Setaria viridis [8]; Dosage 80 g/ha): 90%; post-emergence efficacy ABUTH (Abutilon theophrasti [21]; 80 g/ha): 80%; post-emergence efficacy ABUTH (Abutilon theophrasti [21]; 320 g/ha): 90%; post-emergence efficacy MATIN (Matricaria inodora [16]; 320 g/ha): 80%; post-emergence efficacy SETVI (Setaria viridis [22]; 80 g/ha): 60%; post-emergence efficacy SETVI (Setaria viridis [22]; 320 g/ha): 80%
3 | Cc1cc2c(s1)C(Nc1ncc(S(C)(=O)=O)c(N)n1)CCC2 (racemic) [compound 19] | 100% | 100% | 100% | 100% | – | – | 100% | 100% | 80% | 100% | 100% | 100% | 100% | 100% | 100% | 100% | 90% | 100% | 90% | 100% | ABUTH pre-emergence efficacy (herbicidal activity) (Abutilon theophrasti [23]; Dosage 80 g/ha): 80%; ABUTH pre-emergence efficacy (herbicidal activity) (Abutilon theophrasti [23]; Dosage 320 g/ha): 100%; CYPES pre-emergence efficacy (herbicidal activity) (Cyperus esculentus): 80%; ECHCG pre-emergence efficacy (herbicidal activity) (Echinochloa crus-galli [3]; Dosage 80 g/ha): 100%; SETVI pre-emergence efficacy (herbicidal activity) (Setaria viridis [8]; Dosage 80 g/ha): 100%; post-emergence efficacy ABUTH (Abutilon theophrasti [21]; 80 g/ha): 90%; post-emergence efficacy ABUTH (Abutilon theophrasti [21]; 320 g/ha): 90%; post-emergence efficacy ALOMY (Alopecurus myosuroides [24]): 90%; post-emergence efficacy AMARE (Amaranthus retroflexus [12]; 80 g/ha): 80%; post-emergence efficacy ECHCG (Echinochloa crus-galli [13]; 80 g/ha): 100%; post-emergence efficacy ECHCG (Echinochloa crus-galli [13]; 320 g/ha): 100%; post-emergence efficacy LOLMU (Lolium multiflorum [15]): 80%; post-emergence efficacy SETVI (Setaria viridis [22]; 80 g/ha): 90%; post-emergence efficacy SETVI (Setaria viridis [22]; 320 g/ha): 100%; post-emergence efficacy STEME (Stellaria media [18]; 80 g/ha): 80%; post-emergence efficacy STEME (Stellaria media [18]; 320 g/ha): 100%; post-emergence efficacy VERPE (Veronica persica [19]; 80 g/ha): 90%

— patent US10251395B2, “Substituted furano-/thienocycloalkylamino-2-pyrimidine derivatives and use thereof for controlling undesired plant growth” (Bayer CropScience Aktiengesellschaft, priority 2015, dated 2019)
